Calls of active or inactive are those of the source. No cut-off for these calls is given here.
Experiments:
MV4-11 [1] = assay: Induction of apoptosis in human MV4-11 cells assessed as early apoptotic cells at 1.25 uM incubated for 24 hrs by annexin V-FITC/PI staining based flow cytometric analysis (reference value: 0%); assay type: functional
MV4-11 [2] = assay: Induction of apoptosis in human MV4-11 cells assessed as early apoptotic cells at 0.625 uM incubated for 24 hrs by annexin V-FITC/PI staining based flow cytometric analysis (reference value: 0%); assay type: functional
[3] = Half life in Sprague-Dawley rat at 1 mg/kg,iv administration measured upto 24 hrs by LC-MS/MS analysis; assay type: ADME, organism-based; details: in vivo
[4] = Volume of distribution at steady state in Sprague-Dawley rat at 1 mg/kg,iv administration measured upto 24 hrs by LC-MS/MS analysis; assay type: ADME, organism-based; details: in vivo, read-out: Vdss
[5] = Clearance in Sprague-Dawley rat at 1 mg/kg,iv administration measured upto 24 hrs by LC-MS/MS analysis; assay type: ADME, organism-based; details: in vivo
[6] = AUC (0-infinity) in Sprague-Dawley rat at 1 mg/kg,iv administration measured upto 24 hrs by LC-MS/MS analysis; assay type: ADME, organism-based; details: in vivo
[7] = Apparent oral clearance in Sprague-Dawley rat at 10 mg/kg,po administration measured upto 24 hrs by LC-MS/MS analysis; assay type: ADME, organism-based; details: in vivo
[8] = AUC (0-infinity) in Sprague-Dawley rat at 10 mg/kg,po administration measured upto 24 hrs by LC-MS/MS analysis; assay type: ADME, organism-based; details: in vivo
[9] = Apparent volume of distribution during terminal phase in Sprague-Dawley rat at 10 mg/kg,po administration measured upto 24 hrs by LC-MS/MS analysis; assay type: ADME, organism-based; details: in vivo, read-out: Vz/F
MV4-11 [10] = assay: Induction of apoptosis in human MV4-11 cells assessed as viable cells at 0.625 uM incubated for 24 hrs by annexin V-FITC/PI staining based flow cytometric analysis (reference value: 97%); assay type: functional; details: Homo sapiens, MV4-11, read-out: Activity
MV4-11 [11] = assay: Induction of apoptosis in human MV4-11 cells assessed as viable cells at 1.25 uM incubated for 24 hrs by annexin V-FITC/PI staining based flow cytometric analysis (reference value: 97%); assay type: functional; details: Homo sapiens, MV4-11, read-out: Activity
MV4-11 [12] = assay: Induction of apoptosis in human MV4-11 cells assessed as viable cells at 5 uM incubated for 24 hrs by annexin V-FITC/PI staining based flow cytometric analysis (reference value: 97%); assay type: functional; details: Homo sapiens, MV4-11, read-out: Activity
MV4-11 [13] = assay: Induction of apoptosis in human MV4-11 cells assessed as viable cells at 10 uM incubated for 24 hrs by annexin V-FITC/PI staining based flow cytometric analysis (reference value: 97%); assay type: functional; details: Homo sapiens, MV4-11, read-out: Activity
MV4-11 [14] = assay: Induction of apoptosis in human MV4-11 cells assessed as early apoptotic cells at 5 uM incubated for 24 hrs by annexin V-FITC/PI staining based flow cytometric analysis (reference value: 0%); assay type: functional
MV4-11 [15] = assay: Induction of apoptosis in human MV4-11 cells assessed as early apoptotic cells at 10 uM incubated for 24 hrs by annexin V-FITC/PI staining based flow cytometric analysis (reference value: 0%); assay type: functional
MV4-11 [16] = assay: Induction of apoptosis in human MV4-11 cells assessed as late apoptotic cells at 0.625 uM incubated for 24 hrs by annexin V-FITC/PI staining based flow cytometric analysis (reference value: 0.04 %); assay type: functional
MV4-11 [17] = assay: Induction of apoptosis in human MV4-11 cells assessed as late apoptotic cells at 1.25 uM incubated for 24 hrs by annexin V-FITC/PI staining based flow cytometric analysis (reference value: 0.04 %); assay type: functional
MV4-11 [18] = assay: Induction of apoptosis in human MV4-11 cells assessed as late apoptotic cells at 10 uM incubated for 24 hrs by annexin V-FITC/PI staining based flow cytometric analysis (reference value: 0.04 %); assay type: functional
MV4-11 [19] = assay: Induction of apoptosis in human MV4-11 cells assessed as necrotic cells at 1.25 uM incubated for 24 hrs by annexin V-FITC/PI staining based flow cytometric analysis (reference value: 2.35 %); assay type: functional
MV4-11 [20] = assay: Induction of apoptosis in human MV4-11 cells assessed as necrotic cells at 2.5 uM incubated for 24 hrs by annexin V-FITC/PI staining based flow cytometric analysis (reference value: 2.35 %); assay type: functional
MV4-11 [21] = assay: Induction of apoptosis in human MV4-11 cells assessed as necrotic cells at 5 uM incubated for 24 hrs by annexin V-FITC/PI staining based flow cytometric analysis (reference value: 2.35 %); assay type: functional
MV4-11 [22] = assay: Induction of cell cycle arrest in human MV4-11 cells assessed as accumulation of cells at G0/G1 phase at 0.625 uM incubated for 24 hrs by propidium iodide staining flow cytometric analysis (reference value: 37.64 %); assay type: functional
MV4-11 [23] = assay: Induction of cell cycle arrest in human MV4-11 cells assessed as accumulation of cells at G0/G1 phase at 5 uM incubated for 24 hrs by propidium iodide staining flow cytometric analysis (reference value: 37.64 %); assay type: functional
MV4-11 [24] = assay: Induction of cell cycle arrest in human MV4-11 cells assessed as accumulation of cells at G2/M phase at 0.625 uM incubated for 24 hrs by propidium iodide staining flow cytometric analysis (reference value: 18 %); assay type: functional
MV4-11 [25] = assay: Induction of cell cycle arrest in human MV4-11 cells assessed as accumulation of cells at S phase at 0.3125 uM incubated for 24 hrs by propidium iodide staining flow cytometric analysis (reference value: 43.94 %); assay type: functional
MV4-11 [26] = assay: Induction of cell cycle arrest in human MV4-11 cells assessed as accumulation of cells at S phase at 0.625 uM incubated for 24 hrs by propidium iodide staining flow cytometric analysis (reference value: 43.94 %); assay type: functional
MV4-11 [27] = assay: Induction of cell cycle arrest in human MV4-11 cells assessed as accumulation of cells at S phase at 1.25 uM incubated for 24 hrs by propidium iodide staining flow cytometric analysis (reference value: 43.94 %); assay type: functional
MV4-11 [28] = assay: Induction of cell cycle arrest in human MV4-11 cells assessed as accumulation of cells at S phase at 5 uM incubated for 24 hrs by propidium iodide staining flow cytometric analysis (reference value: 43.94 %); assay type: functional
MV4-11 [29] = assay: Induction of apoptosis in human MV4-11 cells assessed as downregulation of c-Myc expression incubated for 48 hrs by Western blotting analysis; assay type: functional, cell-based
MV4-11 [30] = assay: Induction of apoptosis in human MV4-11 cells assessed as upregulation of p21 expression at 0.3125 to 2.5 uM incubated for 48 hrs by Western blotting analysis; assay type: functional, cell-based; details: dose 0.3125-2.5 µM
MV4-11 [31] = assay: Induction of apoptosis in human MV4-11 cells assessed as downregulation of c-Myc expression at 500 nM hrs by Western blotting analysis; assay type: functional, cell-based; details: TDE = time-dependent effect
MV4-11 [32] = assay: Induction of apoptosis in human MV4-11 cells assessed as upregulation of PARP expression at 500 nM hrs by Western blotting analysis; assay type: functional, cell-based; details: TDE = time-dependent effect
MV4-11 [33] = assay: Induction of apoptosis in human MV4-11 cells assessed as upregulation of p21 expression at 500 nM hrs by Western blotting analysis; assay type: functional, cell-based; details: TDE = time-dependent effect
MV4-11 [34] = assay: Antitumor activity against human MV4-11 cells xenografted in BALB/c mouse assessed as tumor growth inhibition at 30 mg/kg administration relative to control; assay type: functional; details: read-out: TGI
[35] = biological target: Bromodomain testis-specific protein (Homo sapiens) (UniProt Q58F21); details: time 30.0 min

COc1cc2c(cc1-c1c(C)noc1C)ncc1nc(C)n([C@H](C)c3ccccc3)c12
Activity (MV4-11 [1]): 6.62% | Activity (MV4-11 [2]): 6.87% | half-life [3]: 42 min | Vd [4]: 0.6 L/kg | clearance [5]: 12.1 mL/min/kg | AUC(0-inf) [6]: 1400 ng·h/mL | CL/F [7]: 10.4 mL/min/kg | AUC(0-inf) [8]: 16000 ng·h/mL | Vd/F [9]: 2.39 L/kg | viability at 0.625 µM (MV4-11 [10]): 68.2% | viability at 1.25 µM (MV4-11 [11]): 83.1% | viability at 5 µM (MV4-11 [12]): 78.4% | viability at 10 µM (MV4-11 [13]): 73.5% | Activity (MV4-11 [14]): 8.46% | Activity (MV4-11 [15]): 10.04% | Activity (MV4-11 [16]): 4.8% | Activity (MV4-11 [17]): 6.32% | Activity (MV4-11 [18]): 11.62% | Activity (MV4-11 [19]): 8% | Activity (MV4-11 [20]): 8% | Activity (MV4-11 [21]): 8% | Activity (MV4-11 [22]): 61.2% | Activity (MV4-11 [23]): 78.57% | Activity (MV4-11 [24]): 16.18% | Activity (MV4-11 [25]): 44.55% | Activity (MV4-11 [26]): 44.55% | Activity (MV4-11 [27]): 23.31% | Activity (MV4-11 [28]): 17.41% | Activity (MV4-11 [29]): Dose-Dependent Effect | Activity (MV4-11 [30]): Active | Activity (MV4-11 [31]): Tde | Activity (MV4-11 [32]): Tde | Activity (MV4-11 [33]): Tde | inhibition in vivo at 30 mg/kg (MV4-11 [34]): 55.1%

COc1cc2c(cc1-c1c(C)n[nH]c1C)ncc1nc(C)n([C@H](C)c3ccccc3)c12
ΔTm [35]: 5 °C

Reference: ChEMBL document CHEMBL5532655, “Discovery of (R)-4-(8-methoxy-2-methyl-1-(1-phenylethy)-1H-imidazo[4,5-c]quinnolin-7-yl)-3,5-dimethylisoxazole as a potent and selective BET inhibitor for treatment of acute myeloid leukemia (AML) guided by FEP calculation” (Eur J Med Chem, 2024)
